Experimental data taken from patent publication US7678826B2, “Organic compounds for the treatment of inflammatory or allergic conditions” (priority 2005, dated 2010).
pIC50, pKi: −log10 of the molar value.

Tests used:
CRTh2 receptor [1] = target: T1, CRTh2 receptor (Homo sapiens, UniProt Q9Y5Y4); experiment: Filtration binding assay: competition with [3H]-PGD2 on CHO.K1-CRTh2 membranes (results text calls it SPA binding assay); conditions: [3H]-PGD2 2.5 nM, Cheng-Prussoff
T1 construct: expressed in transfected cells; host or cells: CHO.K1 (Chinese Hamster Ovary) cells, CHO.K1-CRTh2
T1 sequence (Q9Y5Y4 1-395): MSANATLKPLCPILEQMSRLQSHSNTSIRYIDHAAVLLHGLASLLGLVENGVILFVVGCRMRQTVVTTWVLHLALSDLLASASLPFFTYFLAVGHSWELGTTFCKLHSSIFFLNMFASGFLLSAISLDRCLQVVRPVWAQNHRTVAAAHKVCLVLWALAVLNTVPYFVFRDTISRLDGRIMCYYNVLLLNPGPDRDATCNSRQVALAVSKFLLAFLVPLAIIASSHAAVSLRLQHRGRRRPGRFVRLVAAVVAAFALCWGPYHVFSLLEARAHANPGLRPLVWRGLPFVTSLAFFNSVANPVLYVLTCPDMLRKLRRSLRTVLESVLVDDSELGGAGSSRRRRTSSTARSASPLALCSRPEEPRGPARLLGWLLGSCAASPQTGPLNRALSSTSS
Description: The binding of CRTh2 antagonists is determined using membranes prepared from human CRTh2-expressing Chinese Hamster Ovary cells (CHO.K1-CRTh2). To produce cell membranes CHO.K1-CRTh2 cells cultured in roller bottles are harvested using cell dissociation buffer (Invitrogen). The cells are pelleted by centrifugation (167 g, 5 minutes). The cell pellet is incubated in hypotonic buffer (15 mM Tris-OH, 2 mM MgCl2, 0.3 mM EDTA, 1 mM EGTA, 1× Complete™ tablet) at 4° C. for 30 minutes. At 4° C. cells are homogenized using a Polytron® (IKA Ultra Turrax T25) for 5 bursts of 1 second. The homogenate is centrifuged (Beckman Optima TM TL Ultracentrifuge, 48,000 g, 30 minutes at 4° C.). The supernatant is discarded and the membrane pellet re-suspended in homogenisation buffer (75 mM Tris-OH, 12.5 mM MgCl2, 0.3 mM EDTA, 1 mM EGTA, 250 mM Sucrose, 1× Complete™ tablet. Membrane preparations are aliquoted and stored at […]. The protein content is estimated using Bradford Protein Assay Dye (Bio Rad).
The binding of [^3H]-PGD2 (157 Ci/mmol) to CHO.K1-CRTh2 membranes is determined in the absence (total binding) and presence (non-specific binding) of unlabelled PGD2 (1 μM). Subtraction of the cpm (counts per minute) of [^3H]-PGD2 binding in presence of excess unlabelled PGD2 from that observed in the absence of excess unlabelled PGD2 is defined as specific binding. Active CRTh2 antagonists are able to compete with [^3H]-PGD2 for binding to the CRTh2 receptor and are identified in a decrease in the number of cpm bound.
The assay is performed in Greiner U-bottomed 96 well-plates, in a final volume of 100 μL/well. CHO.K1-CRTh2 membranes were diluted in assay buffer (10 mM HEPES-KOH (pH 7.4), 1 mM EDTA and 10 mM MnCl2) and 10 μμg are added to each well. [^3H]-PGD2 is diluted in assay buffer and added to each well at a final concentration of 2.5 nM. To determine non-specific binding, [3H]-PGD2 binding to the CRTh2 receptor is competed with using unlabelled PGD2 at a final well concentration of 1 μM. The experiment is done in triplicate, with reagents added to the wells as follows: • 25 μL assay buffer for total binding or • 25 μL PGD2 to determine non-specific binding • 25 μL [^3H]PGD2 • […] membranes • 25 μL test compound in DMSO/assay buffer
The plates are incubated at RT on a shaker for 1 hour, and then harvested (Tomtec Harvester 9600) onto GF/C filter plates using wash buffer (10 mM HEPES-KOH, pH 7.4). […] Plates are then counted using a Packard Top Count instrument, Plates are then read on the Packard Topcount with the 3H Scintillation program (1 minute/well).
Ki (dissocation constant for the inhibition) values for the CRTh2 antagonists are reported. Ki values are determined using Sigma Plot™ software, using the Cheng-Prussoff equation. […]

CRTh2 receptor [2] = target: T1, CRTh2 receptor; experiment: CRTH2 cAMP functional assay: inhibition of PGD2-mediated attenuation of forskolin-induced cAMP accumulation in CHO.K1-CRTh2 cells; assay type: cell-based; conditions: 10 nM PGD2, 5 μM forskolin, cAMP Alphascreen
Description: Ki (dissocation constant for the inhibition) values for the CRTh2 antagonists are reported. Ki values are determined using Sigma Plot™ software, using the Cheng-Prussoff equation. Ki=IC50/1+[S]/Kd, where S is the concentration of radioligand and Kd is the dissociation constant. CRTH2 cAMP Functional Assay Protocol
This assay is conducted in CHO.K1-CRTh2 cells. cAMP is generated in the cell by stimulating cells with 5 μM forskolin, an adenylate cyclase activator. PGD2 is added to activate the CRTh2 receptor which results in the attenuation of the forskolin-induced cAMP accumulation. Potential CRTh2 antagonists are tested for their ability to inhibit the PGD2-mediated attenuation of the forskolin-induced cAMP accumulation in CHO.K1-CRTh2 cells.
For each concentration value on the dose-response curve, test compounds are prepared in assay stimulation buffer (HBSS, 5 mM HEPES, 10 μM IBMX±0.1% human serum albumin) containing DMSO (3% vol/vol) and 5 μL/well is added to an assay plate (384-well white optiplate).
CHO.K1-CRTh2 cultured in tissue culture flasks are washed with PBS and harvested with dissociation buffer. Cells are washed with PBS and resuspended in stimulation buffer to a concentration of 0.4×10^6/mL and added to the assay plate (10 μL/well).
The assay plate is incubated at room temperature on a shaker for 15 minutes.
A mix of agonist (10 nM Prostaglandin D2) and 5 μM forskolin is prepared in assay stimulation buffer and added to the assay plate (5 μL/well).
In addition, a cAMP standard is serially diluted in assay stimulation buffer and added to separate empty wells on the assay plate (20 μL/well). The cAMP standard allows for the quantification of cAMP generated in CHO.K1-CRTH2 cells.
The assay plate is incubated at room temperature on a shaker for 60 minutes.
Cell lysis buffer (Lysis buffer: Milli-Q H2O, 5 mM HEPES, 0.3% Tween-20, 0.1% human serum albumin) is added to a bead mix (containing Alphascreen™ anti-cAMP acceptor beads 0.06 units/μL, Alphascreen™ streptavidin-coated donor beads 0.06 units/μL, biotinylated cAMP 0.06 units/μL, 10 μM IBMX) is prepared under darkened conditions 60 minutes prior to addition to the assay plate. The resulting lysis mix is added to all wells of the assay plate (40 μL/well).
The assay plate is sealed with Topseal-S™ and incubated in the dark at room temperature on a shaker for 45 minutes. The plate is then counted using a Packard Fusion™ instrument.
The resulting counts per minute are converted to nM cAMP by using the prepared cAMP standard curve. IC50 values (concentration of CRTh2 antagonist required to inhibit 50% of the PGD2-mediated attenuation of forskolin-induced cAMP accumulation in CHO.K1-CRTh2 cells) are then determined using Prism™ software.

pKi (CRTh2 receptor [1])	pIC50 (CRTh2 receptor [2])	SMILES
7.02	7.65	CC(Oc1ccc(Cl)cc1Cc1cc(Cl)ccc1OCC(=O)O)C(=O)N1CCOCC1 (centres unmarked) [Example 3, {4-Chloro-2-[5-chloro-2-(1-methyl-2-morpholin-4-yl-2-oxo-ethoxy)-benzyl]-phenoxy}-acetic acid]
7.08	7.43	CC(Oc1ccccc1Cc1cc(Cl)ccc1OCC(=O)O)C(=O)N1CCCC1 (centres unmarked) [Example 7, {4-Chloro-2-[2-(1-methyl-2-oxo-2-pyrrolidin-1-yl-ethoxy)-benzyl]-phenoxy}acetic acid]
7.22	7.60	CC(Oc1ccccc1Cc1cc(Cl)ccc1OCC(=O)O)C(=O)N1CCCC1 (single isomer, unassigned) [8 (enantiomer 1), {4-Chloro-2-[2-((R/S)-1-methyl-2-oxo-2-pyrrolidin-1-yl-ethoxy)-benzyl]-phenoxy}-acetic acid]
7.39	7.65	CC(Oc1ccc(Cl)cc1Cc1cc(Cl)ccc1OCC(=O)O)C(=O)N1CCCC1 (racemic) [Example 1, {4-Chloro-2-[5-chloro-2-(1-methyl-2-oxo-2-pyrrolidin-1-yl-ethoxy)-benzyl]-phenoxy}-acetic acid]
